Results as given in US9938269B2, “Inhibitor compounds of phosphodiesterase type 10A” (ABBVIE INC., priority 2011, dated 2018).
pIC50: −log10 of the molar value. Where a name gives a salt, the structure may show the parent alone.

Columns and labels:
[1] = Determination of the microsomal half-life, rat liver microsomes; details: rat, liver microsomes, pH 7.4
PDE10A (human) = target: T1, PDE10A (human) (Homo sapiens, UniProt Q9Y233); assay: Measurement of PDE activity (HTRF cAMP kit), human PDE10A; type: biochemical; details: PDE enzymatic reaction, substrate 20 nM for PDE10, 60 minutes at 29 C
T1 construct: purchased BPS Bioscience
T1 sequence (Q9Y233 whole entry): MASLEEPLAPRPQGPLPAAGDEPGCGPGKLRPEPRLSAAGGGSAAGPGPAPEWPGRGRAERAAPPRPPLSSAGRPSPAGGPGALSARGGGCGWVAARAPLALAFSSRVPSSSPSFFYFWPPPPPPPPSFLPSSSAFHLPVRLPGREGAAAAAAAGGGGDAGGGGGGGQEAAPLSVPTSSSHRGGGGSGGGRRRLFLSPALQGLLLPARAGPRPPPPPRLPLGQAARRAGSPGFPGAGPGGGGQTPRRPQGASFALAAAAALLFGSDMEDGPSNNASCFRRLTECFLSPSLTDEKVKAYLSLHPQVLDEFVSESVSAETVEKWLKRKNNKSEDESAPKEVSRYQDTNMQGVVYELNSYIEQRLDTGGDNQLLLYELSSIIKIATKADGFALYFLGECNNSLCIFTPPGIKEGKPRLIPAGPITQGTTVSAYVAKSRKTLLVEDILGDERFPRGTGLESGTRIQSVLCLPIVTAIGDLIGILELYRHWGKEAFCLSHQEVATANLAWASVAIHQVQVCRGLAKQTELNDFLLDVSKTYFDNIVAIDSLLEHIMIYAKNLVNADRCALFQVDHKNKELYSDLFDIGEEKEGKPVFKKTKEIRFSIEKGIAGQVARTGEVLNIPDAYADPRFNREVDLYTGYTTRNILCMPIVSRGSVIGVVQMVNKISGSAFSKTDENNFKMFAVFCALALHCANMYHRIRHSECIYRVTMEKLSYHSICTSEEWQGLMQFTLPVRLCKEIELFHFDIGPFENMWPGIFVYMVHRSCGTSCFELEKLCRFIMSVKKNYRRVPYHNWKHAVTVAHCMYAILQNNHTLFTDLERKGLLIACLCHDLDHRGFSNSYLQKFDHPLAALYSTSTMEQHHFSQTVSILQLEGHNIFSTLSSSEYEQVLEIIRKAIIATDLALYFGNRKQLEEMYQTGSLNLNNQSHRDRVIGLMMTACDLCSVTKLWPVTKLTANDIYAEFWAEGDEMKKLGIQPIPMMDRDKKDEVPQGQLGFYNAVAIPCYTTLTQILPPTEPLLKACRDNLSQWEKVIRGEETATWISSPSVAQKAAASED
How it was run: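 HTRF detection of cAMP left after hydrolysis, expressed as percent of uninhibited control to derive IC50. Reaction: serially diluted inhibitor mixed with recombinant enzyme, started with 20 nM cAMP, 60 min at 29 °C in Tris-HCl pH 7.5 buffer containing MgCl2 and BSA.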

[2] = Determination of the microsomal half-life, human liver microsomes; details: human, liver microsomes, pH 7.4

microsomal CLint at 0.5 μM [1] [µL/min/mg]	pIC50 (PDE10A (human))	microsomal CLint at 0.5 μM [2] [µL/min/mg]	Structure (SMILES)
< 100	6.70 to 7.00	< 100	O=C1c2cccc(N3CCOCC3)c2CN1CCc1cn2ccccc2n1 [Example 308, 2-(2-Imidazo[1,2-a]pyridin-2-yl-ethyl)-4-morpholin-4-yl-2,3-dihydro-isoindol-1-one]
< 100	6.30 to 6.70	< 100	Cc1ccc(CCN2Cc3nccc(-c4ccncc4)c3C2=O)nc1 [compound 481, 6-[2-(5-Methyl-2-pyridyl)ethyl]-4-(4-pyridyl)-7H-pyrrolo[3,4-b]pyridin-5-one trifluoroacetate]
< 100	> 7.00	> 220	COc1ccc(N2CCOCC2)c2c1CN(CCc1nc3ccccc3n1C)C2=O [Example 371, 4-Methoxy-2-[2-(1-methyl-1H-benzoimidazol-2-yl)-ethyl]-7-morpholin-4-yl-2,3-dihydro-isoindol-1-one]
> 220	6.70 to 7.00	< 100	COc1ccc(-c2ccnc3c2CN(CCc2cn4ccccc4n2)C3=O)cc1 [compound 461, 6-(2-Imidazo[1,2-a]pyridin-2-yl-ethyl)-4-(4-methoxy-phenyl)-5,6-dihydro-pyrrolo[3,4-b]pyridin-7-one trifluoroacetate]
< 100	6.70 to 7.00	< 100	O=C(O)C1CCN(c2ccnc3c2C(=O)N(CCc2ccc4ccccc4n2)C3)CC1 [Example 366, 1-[5-Oxo-6-(2-quinolin-2-yl-ethyl)-6,7-dihydro-5H-pyrrolo[3,4-b]pyridin-4-yl]-piperidine-4-carboxylic acid]
< 100	> 7.00	< 100	Cc1c(-c2ccnc3c2C(=O)N(CCc2ccc4ccccc4n2)C3)cnn1C [Example 332, 4-(1,5-Dimethyl-1H-pyrazol-4-yl)-6-(2-quinolin-2-yl-ethyl)-6,7-dihydro-pyrrolo[3,4-b]pyridin-5-one]
< 100	> 7.00	100 to 220	O=C1c2c(cccc2-c2cncnc2)CN1CCc1cn2ccccc2n1 [Example 238, 2-(2-Imidazo[1,2-a]pyridin-2-yl-ethyl)-7-pyrimidin-5-yl-2,3-dihydro-isoindol-1-one]
< 100	> 7.00	< 100	COc1ccc(-c2cncnc2)c2c1C(=O)N(CCc1cn3ccccc3n1)C2 [compound 549, 2-(2-Imidazo[1,2-a]pyridin-2-yl-ethyl)-7-methoxy-4-pyrimidin-5-yl-2,3-dihydro-isoindol-1-one trifluoroacetate]
< 100	> 7.00	< 100	Cn1c(CCN2Cc3nccc(-c4ccncc4)c3C2=O)nc2ccccc21 [Example 367, 6-[2-(1-Methyl-1H-benzoimidazol-2-yl)-ethyl]-4-pyridin-4-yl-6,7-dihydro-pyrrolo[3,4-b]pyridin-5-one]
< 100	> 7.00	< 100	O=C1c2c(N3CCOCC3)ccc(F)c2CN1CCc1cn2ccccc2n1 [Example 295, 4-Fluoro-2-(2-imidazo[1,2-a]pyridin-2-yl-ethyl)-7-morpholin-4-yl-2,3-dihydro-isoindol-1-one]
100 to 220	6.30 to 6.70	100 to 220	O=C1c2c(cccc2N2CCOCC2)CN1CCc1nc2ccccc2n1C(F)F [compound 449, 2-[2-(1-Difluoromethyl-1H-benzoimidazol-2-yl)-ethyl]-7-morpholin-4-yl-2,3-dihydro-isoindol-1-one trifluoroacetate]
> 220	6.30 to 6.70	100 to 220	COc1ccc(-c2ccc(F)c3c2C(=O)N(CCc2cn4ccccc4n2)C3)cc1 [Example 380, 4-Fluoro-2-(2-imidazo[1,2-a]pyridin-2-yl-ethyl)-7-(4-methoxy-phenyl)-2,3-dihydro-isoindol-1-one]

Second part, the molecule before the results:

Structure (SMILES)	microsomal CLint at 0.5 μM [1] [µL/min/mg]	pIC50 (PDE10A (human))	microsomal CLint at 0.5 μM [2] [µL/min/mg]
O=C1c2c(cccc2-c2ccncc2)CN1CCc1ccc2sccc2n1 [Example 19, 7-Pyridin-4-yl-2-(2-thieno[3,2-b]pyridin-5-yl-ethyl)-2,3-dihydro-isoindol-1-one]	100 to 220	> 7.00	> 220
COc1ccc(-c2cccnc2)c2c1CN(CCc1cn3ccccc3n1)C2=O [Example 218, 2-(2-Imidazo[1,2-a]pyridin-2-yl-ethyl)-4-methoxy-7-pyridin-3-yl-2,3-dihydro-isoindol-1-one trifluoroacetate]	< 100	> 7.00	< 100
O=C1c2c(cccc2N2CCNCC2)CN1CCc1ccc2ccccc2n1 [Example 102, 7-piperazin-1-yl-2-(2-quinolin-2-yl-ethyl)-2,3-dihydro-isoindol-1-one]	100 to 220	6.30 to 6.70	< 100
O=C1c2c(-c3cncnc3)ccnc2CN1CCc1nc2ccccn2n1 [Example 215, 4-Pyrimidin-5-yl-6-(2-[1,2,4]triazolo[1,5-a]pyridin-2-yl-ethyl)-6,7-dihydro-pyrrolo[3,4-b]pyridin-5-one]	< 100	6.30 to 6.70	< 100
O=C1c2c(cccc2-c2ccc3[nH]cnc(=O)c3c2)CN1CCc1ccc2ccccc2n1 [Example 7, 6-[3-oxo-2-(2-quinolin-2-yl-ethyl)-2,3-dihydro-1H-isoindol-4-yl]-1H-quinazolin-4-one trifluoroacetate]	100 to 220	6.30 to 6.70	100 to 220
COc1ccc(N2CCS(=O)(=O)CC2)c2c1CN(CCc1ccc3ccccc3n1)C2=O [Example 189, 7-(1,1-Dioxo-thiomorpholin-4-yl)-4-methoxy-2-(2-quinolin-2-yl-ethyl)-2,3-dihydro-isoindol-1-one]	100 to 220	> 7.00	100 to 220
Cn1nccc1-c1ccnc2c1C(=O)N(CCc1ccc3ccccc3n1)C2 [Example 162, 4-(2-Methyl-2H-pyrazol-3-yl)-6-(2-quinolin-2-yl-ethyl)-6,7-dihydro-pyrrolo[3,4-b]pyridin-5-one hydrochloride]	< 100	> 7.00	< 100
O=C1c2c(cccc2N2C[C@@H]3C[C@H]2CN3)CN1CCc1ccc2ccccc2n1 [Example 101, 7-(1S,4S)-2,5-Diaza-bicyclo[2.2.1]hept-2-yl-2-(2-quinolin-2-yl-ethyl)-2,3-dihydro-isoindol-1-one]	> 220	6.30 to 6.70	< 100
O=C1c2c(ccc(F)c2-c2ccncc2)CN1CCc1ccc2ccccc2n1 [Example 14, 6-Fluoro-7-pyridin-4-yl-2-(2-quinolin-2-yl-ethyl)-2,3-dihydro-isoindol-1-one]	100 to 220	> 7.00	100 to 220
O=C1c2c(cccc2N2CCS(=O)(=O)CC2)CN1CCc1ccc2ccccc2n1 [Example 104, 7-(1,1-Dioxo-1-thiomorpholin-4-yl)-2-(2-quinolin-2-yl-ethyl)-2,3-dihydro-isoindol-1-one]	< 100	> 7.00	< 100
